The values that follow come from US5232684A, “Labelled resiniferatoxin, compositions thereof, and methods for using the same” (priority 1990, dated 1993).

Test [1] concerns the target T1, capsaicin receptor (pig DRG membranes) (Sus scrofa, UniProt F1RLJ0).
T1 construct: tissue Mt; Airy Locker Co., Mt; Airy, MD; host or cells: pig dorsal root ganglia
Put plainly: biochemical. It is filed as binding. The settings on record: for inhibition of specific [^3H]RTX binding: Table 1, 200 nM or 2 μM; for inhibition of [^3H]RTX binding: 30 uM; for inhibition of / competition for [^3H]RTX binding (words): biologically effective concentrations, Table 1, 10 μM, 10 µM. How it is done:
(§1) Membrane preparations are obtained from the DRG and Gasser ganglia of female Sprague-Dawley rats (250-300 g); animals are sacrificed by decapitation under ether anesthesia, the ganglia removed and collected into ice-cold disrupting buffer (5 mM KCl, 5.8 mM NaCl, 2 mM MgCl2, 12 mM glucose, 137 mM sucrose, 10 mM HEPES, 5 mM DTT, 2 mM EGTA, pH 7.4). After homogenization with the aid of a Polytron tissue homogenizer, samples are filtered over surgical gauze and then washed twice with the same buffer and stored at -70° C. Particulate fractions are obtained from other rat neural tissues (cerebellum, spinal cord, preoptic region, striatum, substantia nigra) and from DRG of pigs (Mt. Airy Locker Co., Mt. Airy, MD), sheep, cows (kindly provided by Dr. Solomon, USDA, Beltsville, MD), and chickens (Truslow Farms, Chesterton, MD) by a similar procedure.
Subcellular fractions are prepared by a modification of the method of Bastiaensen et al. (Bastiaensen, E., Miserez, B. and De Potter, W., Subcellular fractionation of bovine ganglion stellatum: co-storage of noradrenaline, Met-enkephalin and neuropeptide Y in large `dense-cored` vesicles, Brain Res., 442 (1988) 124-130. ) Briefly: DRG are dissected free from capsule, cut into small pieces with scissors, and then homogenized with a teflon pestle (20 strokes) in ice-cold 0.25 M sucrose/ 20 mM Tris-Cl (pH 7.4) buffer. The homogenate is filtered over surgical gauze; it is then centrifuged for 10 min at 2000 gmax, giving a pellet P1, and again at 10 000 gmax for 15 min giving a pellet P2. The P1 and P2 pellets are saved as nuclear and mitochondrial fractions for binding studies. The resulting supernatant is further centrifuged at 50 000 gmax for 60 min, and then the pellet is harvested as the plasma-membrane enriched microsomal fraction.
(§2) The binding assays are carried out in a volume of 250 ul, containing assay buffer (same as the disrupting buffer but omitting DTT and EGTA and including 0.75 mM CaCl2), 26-30 ug of membrane protein and 0.25 mg/ml bovine serum albumin. […] Tubes are kept on ice while the additions are made. The assay mixture is incubated for 10 min at 37° C.; it is then cooled on ice. 150 ul of the mixture is pipetted onto Whatman GF/C or GF/F glass fiber filters presoaked with 10 mg/ml bovine serum albumin in 20 mM Tris-Cl (pH 7.4) and filtered immediately. An aliquot of 50 ul of the mixture is removed to determine total radioactivity. The filters are washed with 100 ml of ice-cold 20 mM Tris-Cl, pH 7 4, containing 0.1 mg/ml bovine serum albumin, and the bound radioactivity is determined by scintillation counting. Non-specific binding is determined in the presence of 100-1000 nM non-radioactive RTX.
(§3) Binding data from saturation experiments using increasing concentrations of hot ligand are analyzed using the collection of computer programs described by McPherson (McPherson, G.A., Analysis of radioligand binding experiments: a collection of computer programs for the IBM PC, J.Pharmacol.Methods, 14 (1985) 213-228).
(§4) Scatchard and Hill transformations are performed by the Equilibrium Binding Data Analysis program referred to as EBDA. Data are further analyzed by the curvilinear regression program LIGAND (Munson, R.J. and Rodbard, D., LIGAND: a versatile computerized approach for characterization of ligand-binding systems, Anal.Biochem, 107 (1980) 220-239).
RTX binding is also analyzed in the presence of a fixed, low (60 pM or 300 pM) concentration of [^3 H]RTX and increasing concentrations of non-radioactive RTX or other ligand.

Test [2] deals with T2, capsaicin receptor (rat DRG membranes) (Rattus norvegicus, UniProt O35433).
T2 construct: membrane preparations from dorsal root ganglia (DRG) of female Sprague-Dawley rats; from tissue; host or cells: dorsal root ganglia of female Sprague-Dawley rats
Kind of test: biochemical. The settings on record: for activity at 0.2 µM: 10 min, read-out: % of specific [^3H]RTX binding measured in the absence of the tested compound ± SEM. Type of test: binding. How it is done: as §1, §2, §3, §4
(§5) RTX binding is also analyzed in the presence of a fixed, low (60 pM or 300 pM) concentration of [^3 H]RTX and increasing concentrations of non-radioactive RTX or other ligand. […] The Ki value for RTX is calculated from the relationship Ki =ID50 -L; the Ki values for other ligands are calculated from the general form of the equation (Cheng, Y.C. and Prusoff, W.H., Relation between the inhibition constant (Ki) and the concentration of inhibitor which causes 50 per cent inhibition (I50) of an enzymatic reaction, Biochem. Pharmacol., 22 (1973) 3099-3108) Ki =IC50 /(1+L/Kd) where L=concentration of labelled ligand and Kd =dissociation constant of radioactive ligand as determined in the saturation experiments using variable concentrations of hot ligand. Comparison of the quality of fit using single and multiple site competition models is performed by the LIGAND program.
[^3 H]RTX binding is examined using membrane preparations from dorsal root ganglia (DRG) of female Sprague-Dawley rats.

For test [3] the following is noted: RTX versus capsaicin, cited from earlier work.
For test [4] the following is noted: RTX versus capsaicin; cited from earlier work.
Test [5] concerns rats. The settings on record: 300 ug/kg RTX s.c.; cited from earlier work.
The test system of test [6] is protein kinase C. Put plainly: [^3H]phorbol 12,13-dibutyrate binding, rat DRG membranes. From the text:
The side chain at C20 is essential for the capsaicin-like 25 activity of RTX (Szallasi, A., Sharkey, N.A. and Blumberg, P.M., Structure-activity analysis of resiniferatoxin analogs, Phytotherapy Res., 6: 253-257, 1990).

Test [7] relates to mitochondrial NADH-Coenzyme Q oxidoreductase. Particulars: high capsaicin concentrations; cited from earlier work.
For test [8], the target named is T3, capsaicin receptor (rat Gasser ganglia) (Rattus norvegicus, UniProt O35433).
T3 construct: from tissue; host or cells: Gasser ganglia of female Sprague-Dawley rats
Put plainly: biochemical. Type of test: binding. The settings on record: for activity at 30 µM: read-out: % of specific [^3H]RTX binding measured in the absence of the tested compound ± SEM. How it is done: as §1, §2, §3, §4, §5
Gasser ganglia represents the […] homolog of the dorsal root ganglia.

The test system of test [9] is capsaicin desensitization of sensory fibers. Particulars: cited from earlier work.
Test [10] deals with protein kinase C. Put plainly: [^3H]PDBu binding, pig DRG membranes. The settings on record: read-out: Kd for [^3H]PDBu binding to membrane preparations.
[11] abbreviates: 10 min, pig DRG, 30 μM, read-out: % of specific [^3H]RTX binding measured in the absence of the tested compound ± SEM.

Entries after “also recorded” stand apart in the source; their conditions may differ. Like-named read-outs stand apart in the source and are kept apart here.

T1 sequence (F1RLJ0 1-841): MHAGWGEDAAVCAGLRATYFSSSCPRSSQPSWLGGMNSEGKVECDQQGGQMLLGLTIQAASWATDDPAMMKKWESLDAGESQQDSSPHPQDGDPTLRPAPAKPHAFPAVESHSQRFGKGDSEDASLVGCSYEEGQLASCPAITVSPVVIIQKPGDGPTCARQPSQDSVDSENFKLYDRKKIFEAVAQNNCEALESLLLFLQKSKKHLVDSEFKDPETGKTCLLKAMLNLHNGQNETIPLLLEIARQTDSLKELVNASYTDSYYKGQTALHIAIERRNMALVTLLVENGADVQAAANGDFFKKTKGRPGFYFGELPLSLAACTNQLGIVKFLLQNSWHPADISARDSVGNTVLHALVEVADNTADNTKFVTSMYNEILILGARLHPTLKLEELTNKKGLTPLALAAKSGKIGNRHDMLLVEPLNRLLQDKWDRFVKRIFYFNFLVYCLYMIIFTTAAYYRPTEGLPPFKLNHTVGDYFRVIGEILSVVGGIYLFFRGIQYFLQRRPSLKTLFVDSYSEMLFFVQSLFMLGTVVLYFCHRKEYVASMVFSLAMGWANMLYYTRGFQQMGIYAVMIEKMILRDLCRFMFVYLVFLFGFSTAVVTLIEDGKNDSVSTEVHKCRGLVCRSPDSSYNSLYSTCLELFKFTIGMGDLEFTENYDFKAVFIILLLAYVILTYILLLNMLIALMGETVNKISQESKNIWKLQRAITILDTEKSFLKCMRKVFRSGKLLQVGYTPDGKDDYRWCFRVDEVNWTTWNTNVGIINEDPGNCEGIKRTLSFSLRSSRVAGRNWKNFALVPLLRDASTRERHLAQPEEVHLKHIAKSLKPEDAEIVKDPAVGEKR
T2 sequence (O35433 whole entry): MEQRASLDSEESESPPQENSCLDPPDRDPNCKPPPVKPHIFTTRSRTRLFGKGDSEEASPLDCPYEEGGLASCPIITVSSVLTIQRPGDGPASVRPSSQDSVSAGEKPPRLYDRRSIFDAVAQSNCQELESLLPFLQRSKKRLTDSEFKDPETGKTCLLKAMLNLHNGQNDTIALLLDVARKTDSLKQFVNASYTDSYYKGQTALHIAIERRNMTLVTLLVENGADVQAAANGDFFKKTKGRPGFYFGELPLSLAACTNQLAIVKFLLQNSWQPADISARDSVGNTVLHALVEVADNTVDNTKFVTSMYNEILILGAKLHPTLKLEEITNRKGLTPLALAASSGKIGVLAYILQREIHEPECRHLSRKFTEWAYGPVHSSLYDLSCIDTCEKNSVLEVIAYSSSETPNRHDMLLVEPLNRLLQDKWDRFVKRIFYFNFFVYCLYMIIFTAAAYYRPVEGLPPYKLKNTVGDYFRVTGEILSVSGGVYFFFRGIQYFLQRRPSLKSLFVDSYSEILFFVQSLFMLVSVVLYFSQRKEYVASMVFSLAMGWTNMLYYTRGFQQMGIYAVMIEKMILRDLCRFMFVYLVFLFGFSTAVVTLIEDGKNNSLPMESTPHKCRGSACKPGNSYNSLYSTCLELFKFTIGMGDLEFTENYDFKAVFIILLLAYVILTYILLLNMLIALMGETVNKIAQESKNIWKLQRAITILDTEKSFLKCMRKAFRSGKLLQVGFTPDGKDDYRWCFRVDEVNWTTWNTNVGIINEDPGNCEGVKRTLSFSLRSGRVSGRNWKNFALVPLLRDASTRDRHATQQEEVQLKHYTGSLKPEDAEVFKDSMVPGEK
T3 sequence (O35433 whole entry): as above

In the case of `N[C@@H](Cc1ccc(O)c(O)c1)C(=O)O` [L-DOPA], in [1] (pig DRG, 100 uM), the “competition for [^3H]RTX binding sites” value is recorded as “does not compete”.
As to `CCCC(=O)O[C@@H]1[C@@H](C)[C@@]2(O)[C@@H](C=C(CO)C[C@]3(O)C(=O)C(C)=C[C@@H]23)[C@@H]2C(C)(C)[C@]12OC(=O)CCC` [PDBu, phorbol 12,13-dibutyrate], the activity at 0.2 µM in test [1] (10 min, read-out: % of specific [^3H]RTX binding measured in the absence of the tested compound ± SEM) was 100 ± 2%; in [2], 106 ± 9%. Besides, the “inhibition of specific [^3H]RTX binding” value in test [1] is “inhibited neither”.
Consider `C=C(C)[C@]12C[C@@H](C)[C@@]34O[C@](Cc5ccccc5)(O[C@@H]1[C@@H]3C=C(CO)C[C@]1(O)C(=O)C(C)=C[C@@H]41)O2` [ROA, resiniferonol 9,13,14-orthophenylacetate], for which the activity at 2 µM in test [1] (10 min, pig DRG, 2 μM, read-out: % of specific [^3H]RTX binding measured in the absence of the tested compound ± SEM) was 105 ± 6%. Besides, the “inhibition of specific [^3H]RTX binding” value in [1] is on record as “inhibited neither”. Also, the activity at 0.2 µM in test [2] (rat DRG, 200 nM) worked out at 106%.
With `C=C(C)[C@]12C[C@@H](C)[C@@]34O[C@](Cc5ccccc5)(O[C@@H]1[C@@H]3C=C(COC(=O)Cc1ccc(O)c(OC)c1)C[C@]1(O)C(=O)C(C)=C[C@@H]41)O2` [RTX, resiniferatoxin], the “loss of specific [^3H]RTX binding after addition of excess non-radioactive RTX” value in [1] (pig DRG membranes, by 10 min at 37° C.) is “complete loss of specific binding”. Besides, the inhibition constant (Ki) stood at 2.4 ± 0.3 nM in [1] (pig DRG, mean±SEM, 4 determinations, read-out: Ki, inhibition of [^3H]RTX binding); 2.2 nM in [1] (pig DRG, one site model, read-out: Ki (LIGAND analysis)); 0.11 ± 0.04 nM in test [2] (rat DRG, 60 pM [^3H]RTX, 30 pM to 3 nM non-radioactive RTX, mean±SEM, 3 determinations, read-out: Ki, competition of [^3H]RTX binding). The “fold more potent than capsaicin / difference in potencies for induction of hypothermia or neurogenic inflammation” value was 10^3 -10^4 fold in [3] and “up to 10^4 fold” in [3] (listed as resiniferatoxin). In addition, the “potency for induction of pain relative to capsaicin” value in test [4] is given as “comparable in potency”. The “time to expression of desensitization” value in test [5] was 1 to 4 h. Moreover, the “inhibition of specific [^3H]phorbol 12,13-dibutyrate binding to protein kinase C” value in [6] (rat DRG preparations) is reported as “only at uM concentrations”.
`COc1cc(CNC(=O)CCCC/C=C/C(C)C)ccc1O` [capsaicin]: the Ki in test [1] was determined as 14000 ± 2000 nM. Also, the “% of specific [^3H]RTX binding measured in the absence of the tested compound ± SEM” value (from here on “% of specific … of the tested compound ± SEM”) is reported as 28 ± 4% in [1] (pig DRG, 30 μM, 10 min) and 30 ± 11 in [8] (gasser ganglia membranes, 30 µM). The “inhibition of NADH-Coenzyme Q oxidoreductase” value in test [7] is given as “inhibited at high capsaicin concentrations”.
As to `COc1cc(CNC(=O)CCCCCCC(C)C)ccc1O` [dihydrocapsaicin], in test [1] (pig DRG), the “inhibition of [^3H]RTX binding” value is reported as “inhibits to a similar degree as does capsaicin”. Besides, the “% of specific … of the tested compound ± SEM” value in [1] (pig DRG, 30 μM, 10 min) was determined as 33 ± 5%; in test [8] (rat Gasser ggl, 30 μM), 22%.
With `NCCc1ccc(O)c(O)c1` [dopamine], the “competition for [^3H]RTX binding sites” value in test [1] was “does not compete”.
As for `CNC[C@H](O)c1ccc(O)c(O)c1` [epinephrine], the “competition for [^3H]RTX binding sites” value in test [1] is given as “does not compete”.
With `NC[C@H](O)c1ccc(O)c(O)c1` [norepinephrine], the “competition for [^3H]RTX binding sites” value in [1] (pig DRG, 100 uM) was “does not compete”.
On to `O=C(/C=C/C=C/c1ccc2c(c1)OCO2)N1CCCCC1` [piperine], for which the activity at 30 µM in [1] (setting [11]) amounted to 109 ± 2%; in test [8] (rat Gasser ggl, 30 μM) it was 118%. In addition, the “inhibition of [^3H]RTX binding” value in test [1] (pig DRG) is “does not inhibit or does so more weakly”.
Regarding `N.N.N.N.N.N.N.N.N.N.N.N.N.N.[Cl-].[Cl-].[Cl-].[Cl-].[Cl-].[Cl-].[O-2].[O-2].[Ru+3].[Ru+3].[Ru+4]` [ruthenium red], the entries for the “inhibition of / competition for [^3H]RTX binding (words)” value in [1] and in [1] (listed as Ruthenium red) were “fails to compete” and “fails to inhibit”, respectively. In addition, the “% of specific … of the tested compound ± SEM” value in test [1] (pig DRG (by column position), 10 μM, n = 2) is 109%. For the same molecule, the “effect on (capsaicin) desensitization” value in [9] is reported as “block capsaicin desensitization; also recorded: blocks the desensitization”.
`COc1cc(CCC(C)=O)ccc1O` [zingerone]: the activity at 30 µM in test [1] (setting [11]) turned out to be 92 ± 7%; in test [8] (rat Gasser ggl, 30 μM) it was 111%. In test [1] (pig DRG), the “inhibition of [^3H]RTX binding” value was “does not inhibit or does so more weakly”.
Consider “[^3 H]phorbol 12,13-dibutyrate [[^3 H]PDBu]”, for which the Kd was found to be 11.5 nM in test [10] and 8.5 nM in [6] (rat DRG, read-out: Kd for [^3H]PDBu binding to membrane preparations).
